Assay results from patent US10537565B2, “Solid forms of N-[2,4-bis(1,1-dimethylethyl)-5-hydroxyphenyl]-1,4-dihydro-4-oxoquinoline-3-carboxamide” (Vertex Pharmaceuticals Incorporated, priority 2005, dated 2020).
≈ marks a conversion by molar mass, not a printed value.

Columns and labels:
[1] = Bioavailability (PK) of solid state forms of Compound 1 in rat, oral dosing compared to IV solution; settings: in vivo
Procedure: Bioavailability of crystalline Form B, 85% amorphous Compound 1 and HPMCAS solid dispersion of Compound 1 were evaluated in rat, the results of which are provided in Table 4 below. These forms of the compound were dosed in an oral suspension with a vehicle containing 0.5% methyl cellulose/0.5% SLS/99% water. Bioavailability of various solid forms was evaluated as compared to a multicomponent IV solution of Compound 1. Bioavailability of crystalline […] was 3-6%, compared to 61-95% for amorphous material and 109-111% for solid dispersion.

Solubility in FaSSIF = type: physicochemical

bioavailability ([1]; po) | % F ([1]; po, 50 mg/kg) | AUC ([1]; po, 50 mg/kg) | Tmax ([1]; po, 50 mg/kg) | % F ([1]; po, 200 mg/kg) | AUC ([1]; po, 200 mg/kg) | Tmax ([1]; po, 200 mg/kg) | solubility (Solubility in FaSSIF; listed as 85% amorphous material) | bioavailability ([1]; 50 mg/kg, % F) | bioavailability ([1]; 200 mg/kg, % F) | Tmax ([1]; po, 50 mg/kg, Tmax) | solubility (Solubility in FaSSIF; listed as crystalline polymorph B) | Structure (SMILES)
61-95% | 95.0% | 135.5 µg·h/mL | 6.0 h | 61.0% | 371.9 µg·h/mL | 6.0 h | 67.4 µg/mL (≈ 172 µM) |  |  |  |  | CC(C)(C)c1cc(C(C)(C)C)c(NC(=O)c2c[nH]c3ccccc3c2=O)cc1O [85% Amorphous, N-[2,4-bis(1,1-dimethylethyl)-5-hydroxyphenyl]-1,4-dihydro-4-oxoquinoline-3-carboxamide]
 | 5.5% |  | 4.0 h | 3.1% |  |  |  | 74% | 67% | 5.5 h | 1.0 µg/mL (≈ 2.55 µM) | CC(C)(C)c1cc(C(C)(C)C)c(NC(=O)c2c[nH]c3ccccc3c2=O)cc1O [Crystalline, N-[2,4-bis(1,1-dimethylethyl)-5-hydroxyphenyl]-1,4-dihydro-4-oxoquinoline-3-carboxamide]
